Measurements reported in patent publication US20250161279A1, “METHODS OF TREATING MULTIPLE MYELOMA USING BCL-2 INHIBITOR” (BeiGene Switzerland GmbH, priority 2022, published 2025).
“And” between values parts separate entries of the source, which are not always exact repeats. Equal values may be shown once.

What was measured:
[1] = tested on: KMS-12-PE human MM subcutaneous xenograft model; experiment: KMS-12-PE xenograft model study: tumor growth; assay type: in vivo, NCG mice; conditions: for Tumor Volume (mm^3) (Mean ± SEM) Day 17: 17 days
Protocol: KMS-12-PE, a human MM cell line, was obtained from Deutsche Sammlung von Mikroorganismen und Zellkulturen (DSMZ, Catalog: ACC 606). KMS-12-PE cells were cultured in RPMI 1640 complete medium, supplemented with 20% (v/v) fetal bovine serum, and 100 μg/mL of penicillin and streptomycin. In this study, cells were used within 10 passages of recovery from liquid nitrogen. KMS-12-PE cells were maintained as suspension cultures at 37° C. in a 5% CO2 atmosphere, being passaged twice weekly. […] Resuspended cells were placed on ice prior to inoculation. The right front flank of each mouse was cleaned with 75% ethanol prior to cell inoculation. Each animal was injected subcutaneously with 3×10^7 cells in 200 μL of cells suspension in the right front flank via a 1 mL LS 25GA syringe. […] Body weight was assessed immediately before dosing and volume dosed was adjusted accordingly. Tumor volume was measured twice weekly in two dimensions using a caliper (measurable since day 4 post treatment in this study). Body weights were recorded twice weekly. One individual was responsible for tumor measurement for the duration of the study. Mice were also monitored daily for clinical signs of toxicity. Mice were euthanized using carbon dioxide at the end of the study. The two-dimension diameters of tumor were determined using a caliper. Tumor volume was calculated using the formula: […] Tumor growth inhibition (TGI) was calculated using the following formula: […] Where, treated t=treated tumor volume at time t, treated t0=treated tumor volume at time 0, vehicle t=vehicle tumor volume at time t, vehicle t0=vehicle tumor volume at time 0. The tumor volume on day 17 post treatment was analyzed using ANOVA method on logarithmic scale in SAS Enterprise Guide version: 7.15 HF3. The following comparisons were made among treatment groups, […] The combination therapy was compared to corresponding single agents. […] The EOHSA tests were adjusted by Holm's multiple comparison test. #p<0.05, ####p<0.0001.

[2] = PK analysis of Compound 1 in KMS-12-PE xenograft mice (plasma, day 14); assay type: in vivo, NCG mice; conditions: for AUC0-24 h of Compound 1, Day 14 / Cmax of Compound 1, Day 14: plasma; for Individual animal's plasma concentration of Compound 1, 0 h post treatment / Individual animal's plasma concentration of Compound 1, 0.5 h post treatment / Individual animal's plasma concentration of Compound 1, 2 h post treatment / Individual animal's plasma concentration of Compound 1, 8 h post treatment / Individual animal's plasma concentration of Compound 1, 24 h post treatment: day 14, steady state
Protocol: On day 14 post treatment, blood samples (about 100 μL per mouse) were collected from the retro-orbital sinus under isoflurane/oxygen anesthesia at predose 0, 0.5, 2, 8, and 24 hours after dosing of Compound 1 (3 mice per time point, every mouse was used for 2 or 3 time points). The blood was transferred to the EDTA-K2 anticoagulation tube, and the plasma was collected by centrifugation at 5,600 rpm for 7 min and was kept frozen in −80° C. until analysis.
For PK analysis, maximum plasma concentration (Cmax) and time to peak (Tmax) were got directly from the plasma concentration versus time graphs. The area under the plasma concentration-time curve (AUC) from time 0 to 24 hours post-dose (AUC0-24h) was calculated.

[3] = tested on: patients with R/R MM harboring t (11;14); assay type: in vivo, human; conditions: 19 patients, 80, 160, 320 and 640 mg QD with dexamethasone, preliminary
[4] = Clinical study, PK of Compound 1 in combination with dexamethasone; assay type: in vivo, human; conditions: MM patients, 80 to 640 mg target doses
Protocol: A dose escalation study is conducted to evaluate the safety and tolerability of Compound 1 in combination with dexamethasone and dexamethasone plus carfilzomib in patients with relapsed/refractory (R/R) multiple myeloma (MM) and t (11;14). Also, the corresponding maximum tolerated dose (MTD)/maximum assessed dose (MAD), recommended Phase 2 dose (RP2D) and pharmacokinetics for Compound 1 in the combination therapies are to be observed.
Compound 1 plus dexamethasone: Patients with R/R MM and t (11;14) receive increasing doses of Compound 1 once daily with starting dose at 80 mg once daily, plus 40 mg of dexamethasone once weekly to determine the safety, tolerability, efficacy, and pharmacokinetics (PK). Upon completion of the dose-limiting toxicity (DLT) window (21 days) and depending on the number of evaluable patients and observed DLTs, the dose of Compound 1 may be de-escalated to 40 mg once daily, stay at 80 mg once daily, or be escalated to 160 mg once daily. Upon dose escalation to 160 mg once daily and provided there are no DLTs observed during the DLT window, the study may be conducted to escalate to a few higher dose levels (up to 640 mg once daily), or to insert some certain intermediate doses between 80 mg and 160 mg once daily.

[5] = Compound 1 1.5 mg/kg + Dexamethasone 0.1 mg/kg p.o. QD
[6] = Compound 1 1.5 mg/kg + Dexamethasone 0.1 mg/kg
[7] = Compound 1 1.5 mg/kg + Dexamethasone 1 mg/kg p.o. QD
[8] = Compound 1 1.5 mg/kg + Dexamethasone 1 mg/kg
[9] = Compound 1 1.5 mg/kg p.o. QD, single agent
[10] = Compound 1 1.5 mg/kg p.o. QD, 1.5 mg/kg
[11] = Dexamethasone 0.1 mg/kg p.o. QD

With CC(C)c1ccccc1[C@@H]1CCCN1C1CC2(CCN(c3ccc(C(=O)NS(=O)(=O)c4ccc(NCC5CCC(C)(O)CC5)c([N+](=O)[O-])c4)c(Oc4cnc5[nH]ccc5c4)c3)CC2)C1 (stereo partly drawn) [Compound 1, 2-((1H-pyrrolo[2,3-b]pyridin-5-yl)oxy)-N-((4-((((1r,4r)-4-hydroxy-4-methylcyclohexyl)methyl)amino)-3-nitrophenyl)sulfonyl)-4-(2-((S)-2-(2-isopropylphenyl)pyrrolidin-1-yl)-7-azaspiro[3.5]nonan-7-yl)benzamide] the “TGI (%) Day 17” value ([1]; Compound 1 1.5 mg/kg p.o. QD) was 11%, the “Tumor Volume (mm^3) (Mean ± SEM) Day 17” value ([1]; Compound 1 1.5 mg/kg p.o. QD) was 1011.7 ± 103.8 mm^3 and the “AUC0-24 h of Compound 1, Day 14” value [2, 5] was 107 ng·h/mL. For the same compound, the “Cmax of Compound 1, Day 14” value [2, 5] was 29.5 ng/mL, the “Individual animal's plasma concentration of Compound 1, 0 h post treatment” value [2, 6] was “BLOQ” and the “Individual animal's plasma concentration of Compound 1, 0.5 h post treatment” value [2, 6] was 4.02 ng/mL and 5.2 ng/mL and 3.67 ng/mL. The “Individual animal's plasma concentration of Compound 1, 2 h post treatment” value [2, 6] was 36.7 ng/mL and 30.9 ng/mL and 20.8 ng/mL, the “Individual animal's plasma concentration of Compound 1, 8 h post treatment” value [2, 6] was 3.18 ng/mL and 6.95 ng/mL and 3.59 ng/mL and the “Individual animal's plasma concentration of Compound 1, 24 h post treatment” value [2, 6] was “BLOQ”. For the same compound, the “AUC0-24 h of Compound 1, Day 14” value [2, 7] was 179 ng·h/mL, the “Cmax of Compound 1, Day 14” value [2, 7] was 42.4 ng/mL and the “Individual animal's plasma concentration of Compound 1, 0 h post treatment” value [2, 8] was “BLOQ”. For the same compound, the “Individual animal's plasma concentration of Compound 1, 0.5 h post treatment” value [2, 8] was 14.4 ng/mL and 6.94 ng/mL and 9.04 ng/mL, the “Individual animal's plasma concentration of Compound 1, 2 h post treatment” value [2, 8] was 54.9 ng/mL and 35.8 ng/mL and 36.4 ng/mL and the “Individual animal's plasma concentration of Compound 1, 8 h post treatment” value [2, 8] was 5.15 ng/mL and 7.02 ng/mL and 5.05 ng/mL. The “Individual animal's plasma concentration of Compound 1, 24 h post treatment” value [2, 8] was “BLOQ (2×) and 0.692 ng/mL”, the “AUC0-24 h of Compound 1, Day 14” value [2, 9] was 200 ng·h/mL and the “Cmax of Compound 1, Day 14” value [2, 9] was 55.8 ng/mL. For the same compound, the “exposure (AUC0-24h and Cmax) at steady state, single treatment group versus combo treatment” value ([2]; Compound 1 1.5 mg/kg p.o. QD, with or without dexamethasone) was “consistent with that in combo treatment”, the “Individual animal's plasma concentration of Compound 1, 24 h post treatment” value ([2]; Compound 1 1.5 mg/kg p.o. QD) was “BLOQ” and the “Individual animal's plasma concentration of Compound 1, 0 h post treatment” value [2, 10] was 1.09 ng/mL and BLOQ (2×). The “Individual animal's plasma concentration of Compound 1, 0.5 h post treatment” value [2, 10] was 8 ng/mL and 5.72 ng/mL and 9.29 ng/mL, the “Individual animal's plasma concentration of Compound 1, 2 h post treatment” value [2, 10] was 62.8 ng/mL and 40.7 ng/mL and 63.9 ng/mL and the “Individual animal's plasma concentration of Compound 1, 8 h post treatment” value [2, 10] was 9.97 ng/mL and 9.73 ng/mL and 5.81 ng/mL. The “clinical activity / disease control” value [3] was “demonstrated activity at tested dose levels, and most patients achieved disease control” and the “drug-drug-interaction (DDI) potential between dexamethasone and Compound 1” value [4] was “low”.

In the case of C[C@@H]1C[C@H]2[C@@H]3CCC4=CC(=O)C=C[C@]4(C)[C@@]3(F)[C@@H](O)C[C@]2(C)[C@@]1(O)C(=O)CO [Dexamethasone], the “TGI (%) Day 17” value [1, 11] is reported as 9%, the “Tumor Volume (mm^3) (Mean ± SEM) Day 17” value [1, 11] is reported as 1036.5 ± 88.8 mm^3 and the “TGI (%) Day 17” value ([1]; Dexamethasone 1 mg/kg p.o. QD) is reported as 46%. The “Tumor Volume (mm^3) (Mean ± SEM) Day 17” value ([1]; Dexamethasone 1 mg/kg p.o. QD) was 696.0 ± 69.2 mm^3.
